Laboratory results published in US20050032904A1, “Composition and use of allylamine derivatives” (priority 2003, published 2005).

What was measured:
[1] = test system: COLO 205 tumor xenografts; assay: Treatment of COLO 205-derived xenografts in vivo; design: species or system nude mouse
Experimental: Genomic DNAs extracted from TB-treated COLO 205 were examined by gel electrophoresis. […] DNA fragmentation was examined at 24 h after drug treatment. In the lanes 2 and 8, cells received mock treatment as controls. […] Comparisons were subjected to ANOVA followed by Fisher's least significant difference test. […] Since, retardation of the cell cycle and/or activation of the cellular apoptotic response are two major mechanisms preventing tumor growth, we examined the TB effect on the cell cycle and apoptosis occurrence of the solid tumor derived from the implanted COLO 205. The COLO-205 cells (5×10^6) in 0.1 ml RPMI 1640 were injected subcutaneously between the scapulae of each nude mouse (purchased from National Science Council animal center, Taipei). […]

[2] = test system: cell cycle regulatory proteins in COLO 205 cells; assay: Western blot of cell cycle regulatory proteins; type: cell-based, human
Experimental: They were then returned to culture media supplemented with 10% FCS and 0.05% DMSO with or without TB (60 μM), and at various times thereafter, they were harvested for protein extraction and Western blot analysis. Based on the FACS analysis in the COLO 205 cells, 0, 15, 18 and 24 h after release from quiescence represents the G0/G1, S, G2/M and 2nd G0/G1 phase of the cell cycle, respectively. (FIG. 2A). Accordingly, these time points were selected for protein extraction and Western blot analysis to examine the effects of TB on the expression of cell cycle regulatory proteins. In FIG. 6, (A) In the DMSO-treated COLO 205, 10% FCS caused a transit increase in p21/Cip1 protein (upper panel). […] The COLO 205 cells were synchronized with 0.04% FCS for 24 h, and then released into complete medium (10% FCS) containing TB (60 μM) for the indicated time points. COLO 205 cells were also treated with DMSO (0.05%, v/v) as a control group. Protein extracts (100 μg/lane) were separated by SDS-PAGE, probed with specific antibodies, and detected using the NBT/BCIP system. […] (LaBaer J, et. al., Genes & Development 1997;11(7):847-62.).
In contrast, TB induced apoptosis in the HL 60 (p53 null) and Hep 3B (p53 partial deleted). […] To further test this hypothesis, the dose effects of TB on the levels of cell cycle regulatory protein were conducted in four different human cancer cell lines, COLO 205 (p53 wild type), HT 29 (p53 His^273 mutant), Hep 3B (p53 partial deleted) and HL 60 (p53 null). […] The cells were rendered quiescent for 24 h, and then challenged with 10% FCS and treated with various concentrations of TB (60-150 μM) for additional 15 h. Protein extracts (100 μg/lane) were separated by SDS-PAGE, probed with specific antibodies, and detected using the NBT/BCIP system. Membranes were also probed with anti-GAPDH antibody to correct for differences in protein loading.
As previously described (Chen R J, et. al., Toxicology & Applied Pharmacology 2000;169(2):132-41.), the frozen tumor was pulverized in liquid N2, and then mixed with lysis buffer (Tris-HCl 0.5 M, pH 6.8, SDS 0.4%). For cell cultures, the cells were seeded onto 150-mm dishes and grown in RPMI 1640 (for COLO 205, HT 29 and HL 60 cells) or MEM (for Hep 3B) supplemented with 10% FCS. After the cells had grown to subconfluence, they were rendered quiescent. The cells were released from quiescence with culture medium supplemented with 10% FCS. TB in 0.05% DMSO or 0.05% DMSO without TB was added to the cells at various concentrations and the mixture was allowed to incubate for 17 h. Western blot analysis was performed as previously described (Chen R J, et. al., Toxicology & Applied Pharmacology 2000;169(2):132-41; Lee W S, et. al., Circulation Research 1998;82(8):845-51.). Immunodetection was carried by probing with proper dilutions of specific antibodies at room temperature for 2 h. Anti-p21/Cip1, anti-p27/Kip1, anti-p53, anti-GAPDH monoclonal antibodies (Santa Cruz, Inc. CA); anti-cyclin B1, D1, and D3, anti-cdk2 and cdk4, and PCNA monclonal antibodies (Transduction Laboratories, Lexington, Ky.) were used at a concentration of 1:1,000 dilution. Anti-cyclin A and E polyclonal antibodies (Transduction, San Diego, Calif.) were used at a concentration of 1:250 dilution. The secondary antibodies, alkaline phosphatase-coupled anti-mouse or anti-rabbit antibody (Jackson, Westgrove Pa.), was incubated at room temperature for 1 h at a concentration of 1:5,000 or 1:1,000 dilution, respectively. The specific protein complexes were identified by incubating with the colorigenic substrates (nitro blue tetrazolium, NBT, and 5-bromo-4-chloro-3-indolyl-phosphate, BCIP; Sigma Chemical Co., St. Louis, Mo.). In each experiment, membranes were also probed with anti-GAPDH antibody to correct for differences in protein loading.

[3] = test system: human fibroblasts; assay: Flow cytometry (FACS) cell cycle analysis; type: cell-based
[4] = TB 60-150 μM, 15 h, dose-dependent

CN(C/C=C/C#CC(C)(C)C)Cc1cccc2ccccc12 [TB, 1-Naphthalenemethanamine, N-(6,6-dimethyl-2-hepten-4-ynyl)-N-methyl-, (E)-]
cytotoxicity for the vital organs ([1]; 50 mg/Kg body weight): not cytotoxic for the vital organs | tumor volume vs. vehicle (DMSO plus peanut oil) ([1]; TB 50 mg/kg, ND 5 mg/kg, intraperitoneal, 3 times per week for 6 weeks): reduction in tumor volume | tumor size of the COLO 205 tumor mass ([1]; intraperitoneal TB 50 mg/kg): substantial decline in tumor size | p53 and p21 electrophoretogram bands ([2]; 60 μM TB alone, 15 h): increased in intensity | p21/Cip1 protein level, time effect ([2]; TB 60 μM after release from quiescence): persistent increase | p27/Kip1 protein levels, time effect ([2]; TB 60 μM, 0-24 h after 10% FCS): maintained at high levels | Cyclin A2 and cyclin B levels ([2]; TB 60 μM, time course): also downregulated | level of pRB protein (phosphorylated Rb) ([2]; TB 60 μM, time course): downregulated | levels of cyclin D1 and PCNA protein ([2]; TB 60 μM, time course): not changed | levels of cyclin D3, cdk2 and cdk4 protein ([2]; TB 60 μM, time course): downregulated | levels of cyclin E protein ([2]; TB 60 μM, time course): slightly elevated | levels of cyclin D3 and cdk4, dose effect [2, 4]: decreased | levels of p53, p21/Cip1 and p27/Kip1 protein, dose effect [2, 4]: increased | cytotoxicity for untransformed human fibroblasts ([3]; TB 10-150 μM): not cytotoxic | cell cycle arrest or cell death ([3]; TB treatment for 15 h): did not induce cell cycle arrest or cell death
